The compounds below were run on HCV replicon (HCV1b sub-genomic, Huh-7 cells) (assay: HCV replicon RNA replication assay (luciferase reporter)). Details: Hepatitis C virus, Huh-7.
Type: cell-based, Hepatitis C virus (CON-1 genotype b)
Experimental: All curve fitting was conducted using non-linear regression analyses from PRISM (version 4.0c, GraphPad Inc.) and the determination of Rmax and EC50 or IC50 parameters were obtained from sigmoidal dose-response phase (variable slope) equation.
The replicon HCV1b is generated based on the wild-type sequence CON-1 genotype b (GenBank accession number AJ238799; Lohmann et al., Science 1999, 285: 110-113) and expressed the sub-genomic fragment HCV NS3-NS4A-NS4B-NS5A-NS5B. The replicon contain a hybrid HCV-IRES 5′UTR, a modified luciferase reporter gene expressed as a luciferase-Ubi-neomycin phosphotransferase gene fusion and an EMCV IRES NS3-NS5B subgenomic fragment with its 3′UTR. To generate cell lines harboring the replicon, Huh-7 cells are electroporated with purified in vitro HCV1b RNA transcripts and stable cell lines are selected in the presence of G418. Stable replicon cell lines are established as described in Science 1999, 285: 110-113. The amount of luciferase expressed by selected cells directly correlates with the level of HCV RNA replication, as measured by real-time PCR.
Stable HCV replicon cells are maintained in Dulbecco's Modified Eagle Medium (DMEM) supplemented with 10% FBS and 0.5 mg/ml G418. During the assay, DMEM supplemented with 10% FBS, containing 0.5% DMSO and lacking G418 are used as assay medium. For the assay, cell stocks are trypsinized and diluted in assay medium to distribute 7,500 cells in 96-well plates. The plates are then incubated at 37° until compound addition. Serial dilutions of the test compound are prepared in 100% DMSO, before dilution in assay medium to a final DMSO concentration of 0.5% to generate a concentration dose response curves. A fixed volume from each well of the compound dilution plate is transferred to a corresponding well of the cell culture plate. The cell culture plate is incubated at 37° C. with 5% CO2 for 72 hours. Following the 72 h incubation period, the medium is aspirated from the 96-well assay plate and a volume of 50_l of lysis buffer 100 mM Tris acetate, 20 mM Mg acetate, 2 mM EGTA, 3.6 mM ATP, 1% Brij 58, 0.7%_-mercaptoethanol containing 45_g/ml luciferine (pH 7.9) is added to each well. The luciferase activity is determined using the luciferase substrate and the luminescence is detected on a MicroBeta JET 1450 LSC & Luminescence Counter (Perkin Elmer) instrument. The luminescence in each well of the culture plate is a measure of the amount of HCV RNA replication in the presence of various concentrations of inhibitor. The % inhibition is calculated for each inhibitor concentration and used to determine the concentration that results in 50% inhibition of HCV replication (EC50).
With `Cc1noc(C)c1C(=O)O/N=C(\N)c1cccc(C(F)(F)F)c1` [Compound 61, reference compound] the EC50 was 1000 to 10000 nM.
Compound `Cc1noc(C)c1C(=O)O/N=C(\N)Cc1ccc(-c2csnn2)cc1` [Compound 63, reference compound] has an EC50 of 500 to 1000 nM.
`Cc1noc(-c2ccc(Cl)cc2)c1C(=O)O/N=C(\N)c1ccc(Cl)cc1` [Compound 60, reference compound] showed an EC50 of 500 to 1000 nM.

Same assay, conditions: Hepatitis C virus, Huh-7, 72 h, read-out: EC50 (Range)
Compound `CC(C)c1onc(-c2ccccc2Cl)c1C(=O)O/N=C(\N)c1ccc(OCc2ccc(Cl)cc2)cc1` [Example 12, (Z)-4-((4-chlorobenzyl)oxy)-N′-((3-(2-chlorophenyl)-5-isopropylisoxazole-4-carbonyl)oxy)benzimidamide] has an EC50 of 500 to 1000 nM.
For `N/C(=N\OC(=O)c1c(-c2ccccc2Cl)noc1-c1ccccc1)c1ccc2c(c1)OCO2` [Example 18, (Z)—N′-((3-(2-chlorophenyl)-5-phenylisoxazole-4-carbonyl)oxy)benzo[d][1,3]dioxole-5-carboximidamide], the EC50 was 500 to 1000 nM.
With `N/C(=N\OC(=O)c1ccccc1Cc1ccccc1)c1ccc2c(c1)OCO2` [Example 44, (Z)—N′-((2-benzylbenzoyl)oxy)benzo[d][1,3]dioxole-5-carboximidamide] the EC50 was 500 to 1000 nM.
`N/C(=N\OC(=O)c1c(C(F)(F)F)cccc1C(F)(F)F)c1ccc2c(c1)OCO2` [Example 4, (Z)—N′-((2,6-bis(trifluoromethyl)benzoyl)oxy)benzo[d][1,3]dioxole-5-carboximidamide] gave an EC50 of 1000 to 10000 nM.
`N/C(=N\OC(=O)c1conc1-c1ccccc1Cl)c1ccc2c(c1)OCO2` [Example 1, (Z)—N′-((3-(2-chlorophenyl)isoxazole-4-carbonyl)oxy)benzo[d][1,3]dioxole-5-carboximidamide] showed an EC50 of 1000 to 10000 nM.
Compound `CN/C(=N\OC(=O)c1c(-c2ccccc2Cl)noc1C)c1ccc2c(c1)OCO2` [Example 14, (Z)—N′-((3-(2-chlorophenyl)-5-methylisoxazole-4-carbonyl)oxy)-N-methylbenzo[d][1,3]dioxole-5-carboximidamide] has an EC50 of under 500 nM.
Work on `N/C(=N\OC(=O)c1ccccc1-c1ccccc1C(=O)O)c1ccc2c(c1)OCO2` [Example 45, (Z)-2′-((((amino(benzo[d][1,3]dioxol-5-yl)methylene)amino)oxy)carbonyl)-[1,1′-biphenyl]-2-carboxylic acid] yielded an EC50 of over 10000 nM.
Compound `CC(C(=O)O/N=C(\N)c1ccc2c(c1)OCO2)(c1ccccc1)c1ccccc1` [Example 9, (Z)—N′-((2,2-diphenylpropanoyl)oxy)benzo[d][1,3]dioxole-5-carboximidamide] has an EC50 of under 500 nM.
With `Cc1cc(C)c(C(=O)O/N=C(\N)c2ccc3c(c2)OCO3)c(C)c1` [Example 26, (Z)—N′-((2,4,6-rimethylbenzoyl)oxy)benzo[d][1,3]dioxole-5-carboximidamide] the EC50 was under 500 nM.
In the case of `Cc1onc(-c2ccccc2Cl)c1C(=O)O/N=C(\N)c1ccc(OCc2ccc(Cl)nc2)cc1` [Example 49, (Z)—N′-((3-(2-chlorophenyl)-5-methylisoxazole-4-carbonyl)oxy)-4-((6-chloropyridin-3-yl)methoxy)benzimidamide], the EC50 is reported as under 500 nM.
Compound `CC(C)OC(=O)c1ccccc1-c1ccccc1C(=O)O/N=C(\N)c1ccc2c(c1)OCO2` [Example 38, (Z)-isopropyl 2′-((((amino(benzo[d][1,3]dioxol-5-yl)methylene)amino)oxy)carbonyl)-[1,1′-biphenyl]-2-carboxylate] has an EC50 of under 500 nM.
`Cc1onc(-c2ccccc2Cl)c1C(=O)O/N=C(\N)Cc1nc2ccccc2s1` [Example 24, (Z)-2-(benzo[d]thiazol-2-yl)-N′-((3-(2-chlorophenyl)-5-methylisoxazole-4-carbonyl)oxy)acetimidamide] was tested, and the EC50 was 1000 to 10000 nM.
In the case of `COc1ccccc1C/C(N)=N/OC(=O)c1c(C)cccc1C` [Example 7, (Z)—N′-((2,6-dimethylbenzoyl)oxy)-2-(2-methoxyphenyl)acetimidamide], the EC50 is reported as 500 to 1000 nM.
`CCCCN/C(=N\OC(=O)c1c(-c2ccccc2Cl)noc1C)c1ccc2c(c1)OCO2` [Example 20, (Z)—N-butyl-N′-((3-(2-chlorophenyl)-5-methylisoxazole-4-carbonyl)oxy)benzo[d][1,3]dioxole-5-carboximidamide] gave an EC50 of under 500 nM.
Work on `Cc1cccc(C)c1C(=O)O/N=C(\N)c1ccc(OCc2ccc(Cl)cc2)cc1` [Example 40, (Z)-4-((4-chlorobenzyl)oxy)-N′-((2,6-dimethylbenzoyl)oxy)benzimidamide] yielded an EC50 of under 500 nM.
For `Cc1onc(-c2ccccc2Cl)c1C(=O)O/N=C(\N)c1cccc(Br)c1` [Example 34, (Z)-3-Bromo-N′-((3-(2-chlorophenyl)-5-methylisoxazole-4-carbonyl)oxy)benzimidamide], the EC50 was 1000 to 10000 nM.
Work on `Cc1noc(C)c1C(=O)O/N=C(\N)c1ccc(OCc2ccc(Cl)cc2)cc1` [Example 32, (Z)-4-((4-chlorobenzyl)oxy)-N′-((3,5-dimethylisoxazole-4-carbonyl)oxy)benzimidamide] yielded an EC50 of 500 to 1000 nM.
In the case of `Cc1onc(-c2ccccc2Cl)c1C(=O)O/N=C(/c1ccc2c(c1)OCO2)N(C)C` [Example 19, (Z)—N′-((3-(2-chlorophenyl)-5-methylisoxazole-4-carbonyl)oxy)-N,N-dimethylbenzo[d][1,3]dioxole-5-carboximidamide], the EC50 is reported as 1000 to 10000 nM.
Compound `Cc1cccc(C)c1C(=O)O/N=C(\N)c1ccccc1OCc1ccc(F)cc1` [Example 41, (Z)—N′-((2,6-dimethylbenzoyl)oxy)-2-((4-fluorobenzyl)oxy)benzimidamide] has an EC50 of under 500 nM.
Work on `N/C(=N\OC(=O)c1cccc2ccccc12)c1ccc2c(c1)OCO2` [Example 33, (Z)—N′-((1-naphthoyl)oxy)benzo[d][1,3]dioxole-5-carboximidamide] yielded an EC50 of 500 to 1000 nM.
With `Cc1cccc(C)c1C(=O)O/N=C(\N)c1ccc(-c2csnn2)cc1` [Example 42, (Z)—N′-((2,6-dimethylbenzoyl)oxy)-4-(1,2,3-thiadiazol-4-yl)benzimidamide] the EC50 was 500 to 1000 nM.
In the case of `Cc1onc(-c2ccccc2Cl)c1C(=O)O/N=C(\NCc1cccnc1)c1ccc2c(c1)OCO2` [Example 21, (Z)—N′-((3-(2-chlorophenyl)-5-methylisoxazole-4-carbonyl)oxy)-N-(pyridin-3-ylmethyl)benzo[d][1,3]dioxole-5-carboximidamide], the EC50 is reported as 500 to 1000 nM.
`COc1ccc(/C(N)=N/OC(=O)c2c(-c3ccccc3Cl)noc2C)cc1` [Example 46, (Z)—N′-((3-(2-chlorophenyl)-5-methylisoxazole-4-carbonyl)oxy)-4-methoxybenzimidamide] was tested, and the EC50 was 500 to 1000 nM.
`N/C(=N\OC(=O)c1c(-c2ccccc2Cl)noc1C1CC1)c1ccc2c(c1)OCO2` [Example 11, (Z)—N′-((3-(2-chlorophenyl)-5-cyclopropylisoxazole-4-carbonyl)oxy)benzo[d][1,3]dioxole-5-carboximidamide] gave an EC50 of under 500 nM.
`Cc1cccc(C)c1C(=O)O/N=C(\N)Cc1ccc(OCc2ccc(F)cc2)cc1` [Example 37, (Z)—N′-((2,6-dimethylbenzoyl)oxy)-2-(4-((4-fluorobenzyl)oxy)phenyl)acetimidamide] gave an EC50 of 500 to 1000 nM.
Compound `Cc1onc(-c2ccccc2Cl)c1C(=O)O/N=C(\N)c1ccc(-c2csnn2)cc1` [Example 36, (Z)—N′-((3-(2-chlorophenyl)-5-methylisoxazole-4-carbonyl)oxy)-4-(1,2,3-thiadiazol-4-yl)benzimidamide] has an EC50 of 500 to 1000 nM.
With `Cc1ccc2ccccc2c1C(=O)O/N=C(\N)c1ccc2c(c1)OCO2` [Example 43, (Z)—N′-((2-methyl-1-naphthoyl)oxy)benzo[d][1,3]dioxole-5-carboximidamide] the EC50 was 500 to 1000 nM.
For `COc1ccc(C/C(N)=N/OC(=O)c2ccccc2-c2ccccc2)cc1` [Example 5, (Z)—N′-(([1,1′-biphenyl]-2-carbonyl)oxy)-2-(4-methoxyphenyl)acetimidamide], the EC50 was under 500 nM.
With `Cc1cccc(C)c1C(=O)O/N=C(\N)CCc1ccc(Br)cc1` [Example 8, (Z)-3-(4-bromophenyl)-N′-((2,6-dimethylbenzoyl)oxy)propanimidamide] the EC50 was under 500 nM.
`COc1ccccc1C/C(N)=N/OC(=O)c1ccccc1-c1ccccc1C(=O)OC(C)C` [Example 28, (Z)-isopropyl 2′-((((1-amino-2-(2-methoxyphenyl)ethylidene)amino)oxy)carbonyl)-[1,1′-biphenyl]-2-carboxylate] was tested, and the EC50 was under 500 nM.
With `CC(C)(C(=O)O/N=C(\N)c1ccc2c(c1)OCO2)c1ccccc1` [Example 6, (Z)—N′-((2-methyl-2-phenylpropanoyl)oxy)benzo[d][1,3]dioxole-5-carboximidamide] the EC50 was 500 to 1000 nM.
